The text below walks through data of PubChem BioAssay (NCI).

Some test systems named below: SF-295 CNS; A498 renal; HCC-2998 colon; NCI-H522 lung; RXF 393 renal; K-562 leukemia; HCT-15 colon; M14 melanoma; CAKI-1 renal; SR leukemia.
What all share (experiment): NCI-60 cell line screen, 48 h

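Tested at 5 concentrations; 48 h exposure; 96-well plates; endpoints linearly interpolated, else capped at highest concentration. Abbreviation: GI50, concentration required for 50% inhibition of growth. TGI marks complete inhibition of growth.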 Some results are limits rather than exact numbers.

Take `CCSc1nc(N=Cc2cccs2)c2cn[nH]c2n1`: the GI50 in the assay with SF-295 CNS was 19.1 µM; in the assay with A498 renal, 10.9 µM; in the assay with HCC-2998 colon it was 2.87 µM; in the assay on NCI-H522 lung, 48.5 µM; with RXF 393 renal, 2.85 µM; with K-562 leukemia, 26.1 µM. For the same compound, the GI50 in the assay on HCT-15 colon was 24.6 µM; with M14 melanoma, 14.8 µM; in the assay with CAKI-1 renal it was 18 µM; with SR leukemia it was 2.1 µM. Further, the TGI in the assay on SF-295 CNS was over 100 µM; with A498 renal it was 38.1 µM; with HCC-2998 colon, 11.3 µM; in the assay on NCI-H522 lung, over 100 µM; in the assay on RXF 393 renal it was 7.72 µM; in the assay on K-562 leukemia, over 100 µM. Moreover, the TGI in the assay with HCT-15 colon is over 100 µM; with M14 melanoma, 28 µM; with CAKI-1 renal, over 100 µM; with SR leukemia, 7.21 µM.
`C[C@]12CCC(=O)C(O)=C1CC[C@@H]1[C@@H]2CC[C@]2(C)C(=O)CC[C@@H]12`: the TGI in the assay on SF-295 CNS, in the assay on A498 renal, in the assay with HCC-2998 colon, with NCI-H522 lung, in the assay on RXF 393 renal and with K-562 leukemia was over 100 µM each time. The TGI with HCT-15 colon, in the assay with M14 melanoma, in the assay with CAKI-1 renal and with SR leukemia was over 100 µM throughout.
As for `CC(=O)/C=C/c1ccc(C2CC(C)=Nc3c(ccc4c3C(=O)c3ccccc3C4=O)N2)cc1` (stereo not given), the TGI in the assay with SF-295 CNS, with A498 renal, with HCC-2998 colon, in the assay on NCI-H522 lung, in the assay on RXF 393 renal and with K-562 leukemia was over 100 µM throughout. Further, the TGI in the assay on HCT-15 colon is over 100 µM; with M14 melanoma, over 100 µM; in the assay with CAKI-1 renal, over 83.5 µM; with SR leukemia, over 100 µM.
Turning to `Cc1ccc2c(N)c(C(=O)N[C@H]3CCc4cc(N5CC6CCC(C5)N6)ccc4C3)sc2n1`, the GI50 with SF-295 CNS was 0.509 µM; with A498 renal, 0.775 µM; in the assay on HCC-2998 colon, 0.342 µM; in the assay with NCI-H522 lung, 0.265 µM; with RXF 393 renal it was 0.217 µM; in the assay with K-562 leukemia, 0.203 µM. The GI50 is 0.34 µM in the assay with HCT-15 colon, 0.307 µM in the assay on M14 melanoma, 0.357 µM with CAKI-1 renal and 0.202 µM in the assay with SR leukemia. For the same compound, the TGI with SF-295 CNS was 2.59 µM; in the assay with A498 renal, 2.65 µM; in the assay with HCC-2998 colon, 2.08 µM; in the assay with NCI-H522 lung, 1.59 µM; in the assay with RXF 393 renal, 0.686 µM; with K-562 leukemia, 18 µM. Also, the TGI is 2.36 µM with HCT-15 colon, 1.82 µM in the assay on M14 melanoma, 2.96 µM in the assay with CAKI-1 renal and 4.36 µM in the assay on SR leukemia.
As to `Nc1c(-c2nc3ccccc3[nH]2)sc(=S)n1-c1ccccc1`, the TGI in the assay on SF-295 CNS, in the assay on A498 renal, in the assay with HCC-2998 colon, in the assay with NCI-H522 lung, in the assay on RXF 393 renal and in the assay with K-562 leukemia was over 100 µM each time. For the same compound, the TGI in the assay with HCT-15 colon is over 100 µM; in the assay on M14 melanoma, over 100 µM; with CAKI-1 renal, over 100 µM; in the assay on SR leukemia it was 86.5 µM.
As to `CCOC(=O)Oc1c(OC)cc(C(=O)O[C@@H]2C[C@@H]3CN4CCc5c([nH]c6cc(OC)ccc56)[C@H]4C[C@@H]3[C@H](C(=O)OC)[C@H]2OC)cc1OC`, the GI50 with SF-295 CNS was 10.2 µM; with A498 renal it was 7.38 µM; with HCC-2998 colon, 5.06 µM; with NCI-H522 lung it was 5.18 µM; with RXF 393 renal, 5.03 µM; with K-562 leukemia, 3.5 µM. Moreover, the GI50 in the assay on HCT-15 colon is 2.86 µM; in the assay on M14 melanoma, 4.44 µM; with CAKI-1 renal, 13.9 µM; in the assay with SR leukemia it was 3.61 µM. Moreover, the TGI in the assay on SF-295 CNS is 31.4 µM; in the assay on A498 renal, over 100 µM; with HCC-2998 colon, 20 µM; in the assay with NCI-H522 lung, 18.7 µM; in the assay on RXF 393 renal, 19.1 µM; with K-562 leukemia it was 35.7 µM. The TGI in the assay on HCT-15 colon was 13.2 µM; in the assay with M14 melanoma, 18.9 µM; in the assay on CAKI-1 renal it was 48.1 µM; in the assay with SR leukemia, over 100 µM.
`Cc1[nH]c(/C=C2\C(=O)Nc3ccc(F)cc32)c(C)c1C(=O)NC[C@H](O)CN1CCOCC1`: the GI50 in the assay on SF-295 CNS is over 10 µM; in the assay on A498 renal it was 3.29 µM; in the assay with HCC-2998 colon, 5.17 µM; in the assay on NCI-H522 lung it was over 10 µM; with RXF 393 renal it was 2.33 µM; in the assay with K-562 leukemia it was 4.96 µM. For the same compound, the GI50 with HCT-15 colon was 2.83 µM; in the assay with M14 melanoma it was 0.943 µM; in the assay with CAKI-1 renal it was 1.66 µM; in the assay with SR leukemia it was 3.41 µM. The TGI in the assay with SF-295 CNS, in the assay with A498 renal, in the assay with HCC-2998 colon, in the assay with NCI-H522 lung, with RXF 393 renal and in the assay with K-562 leukemia was over 10 µM in each case. Besides, the TGI in the assay with HCT-15 colon, with M14 melanoma, in the assay on CAKI-1 renal and with SR leukemia was over 10 µM throughout.
Take `O=[N+]([O-])/C=C/c1c[nH]c2ccccc12`: the GI50 with SF-295 CNS is 14 µM; with A498 renal, 16.2 µM; in the assay with HCC-2998 colon it was 4.35 µM; with NCI-H522 lung, 14.8 µM; in the assay with RXF 393 renal, 19.5 µM; in the assay with K-562 leukemia, 21.7 µM. The GI50 was 18.2 µM with HCT-15 colon, 2.35 µM in the assay with M14 melanoma, 16.8 µM with CAKI-1 renal and 2.92 µM with SR leukemia. Moreover, the TGI in the assay with SF-295 CNS was determined as 30.6 µM; in the assay with A498 renal, 31.2 µM; in the assay with HCC-2998 colon, 12.5 µM; with NCI-H522 lung, 28.9 µM; in the assay with RXF 393 renal, 35.1 µM; in the assay with K-562 leukemia, 61 µM. Further, the TGI in the assay on HCT-15 colon came to 45.7 µM; with M14 melanoma, 6.43 µM; in the assay on CAKI-1 renal, 32.7 µM; in the assay on SR leukemia, 7.18 µM.
